Measured values from article PMC10518255, “A first-in-class pan-lysyl oxidase inhibitor impairs stromal remodeling and enhances gemcitabine response and survival in pancreatic cancer” (Nature Cancer, 2023).
Several values for one entry are separate records, joined by “and”; a condition that tells them apart may be missing. Identical values can stand only once.

What was measured:
[1] = system: KPC CCs liver colonization; test: Intrasplenic model of liver colonization, early administration of treatment; assay type: in vivo, mouse; settings: for metastases/mm2: early administration, individual animals; for number of metastatic foci in liver / size of metastatic foci in liver: treatment from day 1 until day 10
Procedure: Fig. 5 PXS-5505 administered in intrasplenic models of liver colonization. a, Schematic of the intrasplenic model of liver colonization with early administration of treatment. CCs were implanted into the spleen of BALB/c-Fox1nuAusb mice under anesthesia on day 0. Treatment with 0.9% saline (vehicle); twice-weekly Gem (100 mg kg^−1 i.p.) (Gem); daily PXS-5505 at 20 mg kg^−1 i.p. (PXS-5505) or daily PXS-5505 at 20 mg kg^−1 i.p. + twice-weekly Gem at 100 mg kg^−1 i.p. (PXS-5505 + Gem) was administered from day 1. At the end point (day 10) livers were collected and H&E-stained for scoring. Representative images of H&E-stained liver (taken from one biologically independent animal). Scale bar, 100 μm. b, Representative images of H&E-stained livers from each treatment group (n = 1 FOV taken from one biologically independent animal per group). Scale bars, 100 μm. c, Quantification of metastases per mm^2 (n = 9 biologically independent animals per group). Data are mean ± s.d. […] Data are mean ± s.d. Two-tailed P values were determined by an unpaired, nonparametric t-test with a Mann–Whitney U-test correction (comparison between two groups). e, Schematic of intrasplenic model of liver colonization with late administration of treatment. CCs were implanted into the spleen of BALB/c-Fox1nuAusb mice under anesthesia on day 0. Treatment with 0.9% saline (vehicle); twice-weekly Gem (100 mg kg^−1 i.p.) (Gem); daily PXS-5505 at 20 mg kg^−1 i.p. (PXS-5505); or daily PXS-5505 at 20 mg kg^−1 i.p. + three doses of Gem (100 mg kg^−1 i.p. (PXS-5505 + Gem) was administered from day 4. Representative images of H&E-stained liver (taken from one biologically independent animal). Scale bar, 100 μm. f, Quantification of metastases at endpoint (n = 10 biologically independent animals per treatment group, n = 5 biologically independent animals at day 4 for confirmation of overt metastases). Data are mean ± s.d. P values were determined by an unpaired, nonparametric t-test with a Mann–Whitney U-test correction (comparison between two groups). g, Representative images of H&E-stained livers from each treatment group. Scale bars, 100 μm. Source data
For the intrasplenic models, animals were randomized before receiving treatment. GLP-grade PXS-5505 (20 mg kg^−1) was administered daily i.p. (starting day 0 for the early stage and day 4 for the late stage) until the end point and gemcitabine (100 mg kg^−1) was administered on days 3, 6 and 9 for the early stage and days 5, 7 and 10 for the late stage.
KPC CCs (5 × 10^5 cells per mouse in 50 μl Hanks balanced saline solution) were slowly injected into the spleens of 8-week-old female BALB/c-Fox1nuAusb mice under anesthesia (isoflurane […], O2 1 l min^−1 with vacuum) as previous described. For the duration of the study mice were kept in conventional caging with environmental enrichment, access to standard chow, water ad libitum and 12-h light–dark cycle at ambient temperature and humidity. For intrasplenic studies, mice were culled at defined end points (10 d for early colonization studies and 11 d for late colonization studies). Animals with non-tumor-related complications that led to a premature end point were censored. At the end point, mice were imaged by whole-body bioluminescent imaging using an IVIS Spectrum (Caliper LS), culled and livers were removed for additional bioluminescent imaging before formalin fixing and paraffin embedding.
The 4-µm formalin-fixed paraffin-embedded (FFPE) sections were cut and stained for H&E following standard histopathology methodologies or stained for CK19 using the Bond RX H2(30) protocol detailed above. Whole liver sections were then digitized on an Aperio slide scanner for blinded analysis. The total number of liver metastases were quantified and determined using QuPath[57].

KPC mouse model of PDAC = test: Quantification of liver metastases (H&E), KPC survival study (Fig. 4g); assay type: in vivo; settings: for liver metastases/mm2: individual animals
Procedure: Fig. 4 PXS-5505 administered in a KPC in vivo survival study. a, Schematic of the KPC in vivo survival study. Presence of a primary tumor in KPC mice was confirmed by two independent researchers (positive diagnosis) before commencement of daily treatment (Tx) on one of four treatment arms as follows: vehicle, 0.9% saline; Gem, twice-weekly gemcitabine (100 mg kg^−1 i.p.); PXS-5505, daily PXS-5505 at 20 mg kg^−1 i.p.; and PXS-5505 + Gem, daily PXS-5505 at 20 mg kg^−1 i.p. + twice-weekly gemcitabine (100 mg kg^−1 i.p.). b, Table of median survival (since diagnosis/commencement of treatment) across the four treatment groups (n = 30 biologically independent animals (vehicle), n = 31 biologically independent animals (Gem), n = 36 biologically independent animals (PXS-5505), n = 46 biologically independent animals (PXS-5505 + Gem)). c, Kaplan–Meier curves for overall survival across treatment arms (n = 30 biologically independent animals (vehicle), n = 31 biologically independent animals (Gem), n = 36 biologically independent animals (PXS-5505), n = 46 biologically independent animals (PXS-5505 + Gem)). P values determined by log-rank (Mantel–Cox) test. d, Representative maximum intensity projections of SHG multiphoton imaging for tumors from each treatment group (n = 1 FOV taken from one biologically independent animal per group) at end point (scale bars, 100 μm) and quantification of SHG peak signal intensity (n = 5 biologically independent animals per group and five FOV per animal). Data are mean ± s.d. […] Quantification of metastases (n = 18 biologically independent animals (vehicle), n = 18 biologically independent animals (Gem), n = 17 biologically independent animals (PXS-5505), n = 15 biologically independent animals (PXS-5505 + Gem)). Data are mean ± s.d.
The 4-µm formalin-fixed paraffin-embedded (FFPE) sections were cut and stained for H&E following standard histopathology methodologies or stained for CK19 using the Bond RX H2(30) protocol detailed above. […] The total number of liver metastases were quantified and determined using QuPath[57].

Structure (SMILES) | metastases/mm2 [1] | number of metastatic foci in liver [1] | size of metastatic foci in liver [1] | metastatic foci / metastatic burden in the liver (KPC mouse model of PDAC; compared to vehicle) | liver metastases/mm2 (KPC mouse model of PDAC)
Nc1ccn([C@@H]2O[C@H](CO)[C@@H](O)C2(F)F)c(=O)n1 [Gem, gemcitabine] | 1.138e-5 /mm2 and 9.508e-5 /mm2 and 3.779e-5 /mm2 and 0 /mm2 and 1.36e-5 /mm2 and 7.872e-6 /mm2 and 6.17e-6 /mm2 | fewer | smaller | did not reduce the number of metastatic foci | 0.000998 /mm2 and 0.00153 /mm2 and 0.000533 /mm2 and 0.002596 /mm2 and 0.002539 /mm2 and 0.002266 /mm2 and 0.001775 /mm2 and 0.001805 /mm2 and 0.001681 /mm2 and 0.002472 /mm2 and 0.001465 /mm2 and 0.003681 /mm2 and 0.001157 /mm2 and 0.004279 /mm2 and 0.0007747 /mm2 and 0.000926 /mm2 and 0.002131 /mm2 and 0.001372 /mm2
Cl.Cl.NC/C=C(\F)CS(=O)(=O)c1cccc2cccnc12.O [PXS-5505, (Z)-3-fluoro-4-(quinolin-8-ylsulfonyl)but-2-en-1-amine dihydrochloride monohydrate] | 0.0002211 /mm2 and 8.732e-6 /mm2 and 2.758e-6 /mm2 and 0.0001431 /mm2 and 0.0002677 /mm2 and 0.0002826 /mm2 and 0.0003511 /mm2 and 0.0007717 /mm2 and 3.2079e-5 /mm2 | small decrease in number | not size of metastatic foci | – | 0.001562 /mm2 and 0.001978 /mm2 and 0.00288 /mm2 and 0.001774 /mm2 and 0.002087 /mm2 and 0.001249 /mm2 and 0.00165 /mm2 and 0.00324 /mm2 and 0.001709 /mm2 and 0.002256 /mm2 and 0.001847 /mm2 and 0.001474 /mm2 and 0.001116 /mm2 and 0.0009543 /mm2 and 0.001461 /mm2 and 0.00148 /mm2 and 0.001125 /mm2
